Experimental data reported in patent EP0435693B1, “Pharmaceutical compositions containing 3-oxygermylpropionic acid polymers for inhibiting the degeneration of cells” (SANWA KAGAKU KENKYUSHO CO., LTD., priority 1989, dated 1991).
Where two headings read alike, the source gives them in different places.

System: SD masculine rats with hypohepatia
Type: in vivo
Conditions: hepatoxic drug alone after carbon tetrachloride
Experimental: Carbon tetrachloride was administered orally as a hepatoxic substance to SD masculine rats (weighing 500 g ± 50 g; age, 10 months) with hypohepatia (3 groups containing 8-9 rats each) at a dose of 0.5 g/kg, whereby their serum GOT was increased to more than 50 Karmen units after 24 hours. At the same time, 2 mg/kg of indomethacin as a hepatoxic drug (a lenitive), 5 mg/kg of 5-FU as a hepatoxic carcinostatic and 10 mg/kg of tetracycline as a hepatoxic antibiotic were administered orally to each of the animals five times every fourth day.
An additional 20 mg/kg of the composition of Preparation Ex. 1 was administered orally to the medicated group.
Seven days after the completion of medication, the animals were slaughtered to remove the livers, which were then visually observed. Afterwards, the tissue slices were observed under an optical microscope to examine the degree of heteroplasia of the liver cells.
The GOT eluates due to cytoclasis were determined by gathering blood from the tail vein of each animal 24 hours after the administration of carbon tetrachloride, two and ten days after the initiation of medication and on the final date of experimentation.

| SMILES | mortality | serum GOT (2 days after the initiation of medication) [Karmen units/ml] | serum GOT (10 days) [Karmen units/ml] | serum GOT (Final Date) [Karmen units/ml] |
| --- | --- | --- | --- | --- |
| O=c1[nH]cc(F)c(=O)[nH]1 [5-FU, 5-fluorouracil] | some animals died | – | – | – |
| COc1ccc2c(c1)c(CC(=O)O)c(C)n2C(=O)c1ccc(Cl)cc1 [Indomethacin] | some animals died | 81.3±4.21 | 91.8±8.35 | 99.4±1.43 |
